Laboratory results taken from patent US7615646B2, “Chiral indole intermediates and their fluorescent cyanine dyes containing functional groups” (Carnegie Mellon University, priority 2002, dated 2009).

Assay: Measurement of pKa values of pH-sensitive cyanine dyes (fluorescence intensity versus pH)
Assay type: physicochemical
Conditions: Cl on the unquaternized indolenine unit
Method: The general method of pKa determination was performed as follows. Purified dye was dissolved in water to give a bulk stock solution (if necessary, a limited amount of acetonitrile was added to ensure solubility). By experiment, the volume of this stock solution that was required to be added to 10.0 ml of water+0.1% v/v trifluoroacetic acid, in order to give an absorbance of 0.5±0.02 at the dye peak wavelength, was determined. This volume of bulk stock solution was then added to 10.0 ml of water, to be used as the working stock solution.
Aqueous phosphate buffers were prepared covering the region of pH 4-9 {see “Data for Biochemical Research”, p. 432, 3rd edition, R. M. C Dawson, D. C. Elliott, W. H. Elliott & K. M. Jones, 1987 Oxford University Press. Buffers outside the listed range were made by adding in orthophosphoric acid or sodium hydroxide}. Plastic fluorescence cuvettes were then charged with 3.5 ml of each buffer. A fixed volume of dye working stock solution (in the range 50-250 μl) was added to a cuvette of buffer, the solution mixed and the fluorescence signal measured immediately {Perkin Elmer LS55 fluorimeter, excitation 640 nm. Emission spectrum was scanned and fluorescence intensity value at 680 nm recorded}. This was repeated for all cuvettes. The graph of fluorescence intensity versus pH was plotted using PRISM, the data fitted to a sigmoidal dose-response curve and the pKa value extracted as the calculated IC50 value from the fitting.

| lowering of dye pKa relative to dye 1 | Compound |
| --- | --- |
| ~0.8 units | 3-(5-carboxypentyl)-2-[(1E,3E,5E)-5-(7-chloro-3,3-dimethyl-5-sulfo-1,3-dihydro-2H-indol-2-ylidene)penta-1,3-dienyl]-3-methyl-5-sulfo-1-(4-sulfobutyl)-3H-indolium [Dye 4] |
| ~1.0 units | CC1(CCCCCC(=O)O)C(/C=C/C=C/C=C2/Nc3c(Cl)cc(Cl)cc3C2(C)C)=[N+](CCCCS(=O)(=O)[O-])c2ccc(S(=O)(=O)O)cc21 (stereo not shown) [Dye 2, 3-(5-carboxypentyl)-2-[(1E,3E,5E)-5-(5,7-dichloro-3,3-dimethyl-1,3-dihydro-2H-indol-2-ylidene)penta-1,3-dienyl]-3-methyl-5-sulfo-1-(4-sulfobutyl)-3H-indolium] |
| 0.3-0.4 units | CC1(C)C(/C=C/C=C/C=C2/Nc3ccc(Cl)cc3C2(C)C)=[N+](CCCCS(=O)(=O)[O-])c2ccc(S(=O)(=O)O)cc21 [Dye 7, 2-[(1E,3E,5E)-5-(5-chloro-3,3-dimethyl-1,3-dihydro-2H-indol-2-ylidene)penta-1,3-dienyl]-3,3-dimethyl-5-sulfo-1-(4-sulfobutyl)-3H-indolium] |

Same assay, conditions: observed in aqueous phosphate buffers via fluorescence; excitation 640 nm, emission 680 nm

| Compound | pKa |
| --- | --- |
| CC1(C)C(/C=C/C=C/C=C2/Nc3ccc(S(=O)(=O)O)cc3C2(C)CCCCCC(=O)O)=[N+](CCCCS(=O)(=O)[O-])c2ccc(S(=O)(=O)O)cc21 (stereo not shown) [Dye 1, 2-{(1E,3E,5E)-5-[3-(5-carboxypentyl)-3-methyl-5-sulfo-1,3-dihydro-2H-indol-2-ylidene]penta-1,3-dienyl}-3,3-dimethyl-5-sulfo-1-(4-sulfobutyl)-3H-indolium] | 7 |
| CC1(CCCCCC(=O)O)C(/C=C/C=C/C=C2/Nc3c(Cl)cc(Cl)cc3C2(C)C)=[N+](CCCCS(=O)(=O)[O-])c2ccc(S(=O)(=O)O)cc21 (stereo not shown) [Dye 2, 3-(5-carboxypentyl)-2-[(1E,3E,5E)-5-(5,7-dichloro-3,3-dimethyl-1,3-dihydro-2H-indol-2-ylidene)penta-1,3-dienyl]-3-methyl-5-sulfo-1-(4-sulfobutyl)-3H-indolium] | 6.05 |
| CC1(CCCCCC(=O)O)C(/C=C/C=C/C=C2/Nc3c(Cl)cc(S(=O)(=O)O)cc3C2(C)C)=[N+](CCCCS(=O)(=O)[O-])c2ccc(S(=O)(=O)O)cc21 (stereo not shown) [Dye 4, 3-(5-carboxypentyl)-2-[(1E,3E,5E)-5-(7-chloro-3,3-dimethyl-5-sulfo-1,3-dihydro-2H-indol-2-ylidene)penta-1,3-dienyl]-3-methyl-5-sulfo-1-(4-sulfobutyl)-3H-indolium] | 6.2 |
| CC1(C)C(/C=C/C=C/C=C2/Nc3ccc(S(=O)(=O)O)cc3C2(C)C)=[N+](CCCCS(=O)(=O)[O-])c2ccc(S(=O)(=O)O)cc21 [Dye 6, 2-[(1E,3E,5E)-5-(3,3-dimethyl-5-sulfo-1,3-dihydro-2H-indol-2-ylidene)penta-1,3-dienyl]-3,3-dimethyl-5-sulfo-1-(4-sulfobutyl)-3H-indolium] | 7 |
| CC1(C)C(/C=C/C=C/C=C2/Nc3ccc(S(=O)(=O)O)cc3C2(C)CCCCCC(=O)O)=[N+](CCCCS(=O)(=O)[O-])c2ccc(Cl)cc21 (stereo not shown) [Example 3] | 7.44 |

More lines, now with the values ahead:

| pKa | Compound |
| --- | --- |
| 6.2 | CC1(CCCCCC(=O)ON2C(=O)CCC2=O)C(/C=C/C=C/C=C2/Nc3c(Cl)cc(S(=O)(=O)O)cc3C2(C)C)=[N+](CCCCS(=O)(=O)[O-])c2ccc(S(=O)(=O)O)cc21 (stereo not shown) [Dye 16.3, 3-(5-Carboxypentyl)-2-[(1E,3E,5E)-5-(7-chloro-3,3-dimethyl-5-sulfo-1,3-dihydro-2H-indol-2-ylidene)penta-1,3-dienyl]-3-methyl-5-sulfo-1-(4-sulfobutyl)-3H-indolium, N-hydroxysuccinimidyl ester] |
| 7 | CC1(C)C(/C=C/C=C/C=C2/Nc3ccccc3C2(C)C)=[N+](CCCCS(=O)(=O)[O-])c2ccc(S(=O)(=O)O)cc21 [Example 5] |
| 6.65 | CC1(C)C(/C=C/C=C/C=C2/Nc3ccc(Cl)cc3C2(C)C)=[N+](CCCCS(=O)(=O)[O-])c2ccc(S(=O)(=O)O)cc21 [Example 7] |
| 6.65 | CC1(C)C(/C=C/C=C/C=C2/Nc3ccc(C#N)cc3C2(C)C)=[N+](CCCCS(=O)(=O)[O-])c2ccc(S(=O)(=O)O)cc21 [Example 8] |
| 7.36 | CC1(C)C(/C=C/C=C/C=C2/Nc3ccc(S(=O)(=O)O)cc3C2(C)C)=[N+](CCCCS(=O)(=O)[O-])c2ccc(Cl)cc21 [Example 9] |
